Reference: patent publication US8153413B2, “High alkaline protease and use thereof” (Japan Agency for Marine-Earth Science and Technology, priority 2004, dated 2012)
“Also recorded” adds a separate entry of the source. Like-named read-outs stand apart in the source and are kept apart here. * marks the point of attachment. butyroxycarboxy = not defined here; pNA = O=[N+]([O-])c1ccc(N*)cc1

Experiments:
Format in all cases: biochemical, Alkaliphillus transvaalensis
[1] = tested on: alkaline protease ALTP; details: for Residual activity (%): pH 10
[2] = tested on: alkaline protease ALTP; assay: Influence of inhibitors on residual activity
Experimental: Each inhibitor was added to 20 mmol/L phosphate buffer (pH 7) at a predetermined concentration, and the invention enzyme was added thereto. The solution was warmed at 30° C. for 20 minutes. Subsequently, the resulting solution was approximately diluted with 50 mmol/L borate buffer (pH 10), and the residual activity was measured.

[3] = tested on: alkaline protease ALTP; assay: Influence of surfactants on residual activity (casein method); details: for Residual activity (%): pH 9.0, 40° C., 4 hours, time 0 = 100%
Experimental: Influence of surfactants on alkaline protease ALTP of the invention was examined. That is, the invention enzyme solution was added to 0.1 mol/L Tris-hydrochloride buffer (pH 9.0), and each of various surfactants shown in Table 4 was added to the solution. The treatment was conducted at 40° C. for 4 hours. Subsequently, the solution was properly diluted with 50 mmol/L borate buffer (pH 10.5) containing 2 mmol/L calcium chloride, and the residual activity was measured by the casein method. The residual activity was expressed in terms of a relative value when an activity value (treatment time 0 minute) immediately after addition of the enzyme to each sample was defined as 100%.

[4] = tested on: alkaline protease ALTP; assay: Action on synthetic substrates (synthetic substrate method, p-nitroaniline release); details: for Relative activity (%): activity to AAPF = 100%, pH 10.0, 30° C., 10 minutes
Experimental: 0.9 ml of 100 mmol/L borate buffer (pH=10.0, containing 2 mmol/L calcium chloride) was mixed with 0.05 ml of a 50 mmol/L synthetic substrate solution (solution obtained by dissolving a p-nitroanilide derivative of an oligopeptide in dimethyl sulfoxide), and the mixture was warmed at 30° C. for 5 minutes. Then, 0.05 ml of the enzyme solution was added, and a reaction was conducted at 30° C. for 10 minutes. 2 ml of a 5% (w/v) citric acid solution was added to terminate the reaction. Absorbance at 420 nm was measured with a spectrophotometer to quantify liberated p-nitroaniline.
Herein, one unit (PU) of the enzyme referred to an amount of an enzyme required to liberate 1 μmol of p-nitroaniline for 1 minute under the foregoing reaction conditions.
Reactivity of alkaline protease ALTP of the invention with each synthetic substrate was measured using synthetic oligopeptide substrates shown in Table 6.
0.9 ml of 100 mmol/L borate buffer (pH=10.0, containing 2 mmol/L calcium chloride) was mixed with 0.05 ml of a 50 mmol/L synthetic substrate solution shown in Table 6. After the mixture was warmed at 30° C. for 5 minutes, 0.05 ml of the enzyme solution was added thereto, and the reaction was conducted at 30° C. for 10 minutes. 2 ml of a 5% (w/v) citric acid solution was added to terminate the reaction. Absorbance at 420 nm was measured using a spectrophotometer, and p-nitroaniline liberated was quantified.
Target sequence in this assay (as listed by the source): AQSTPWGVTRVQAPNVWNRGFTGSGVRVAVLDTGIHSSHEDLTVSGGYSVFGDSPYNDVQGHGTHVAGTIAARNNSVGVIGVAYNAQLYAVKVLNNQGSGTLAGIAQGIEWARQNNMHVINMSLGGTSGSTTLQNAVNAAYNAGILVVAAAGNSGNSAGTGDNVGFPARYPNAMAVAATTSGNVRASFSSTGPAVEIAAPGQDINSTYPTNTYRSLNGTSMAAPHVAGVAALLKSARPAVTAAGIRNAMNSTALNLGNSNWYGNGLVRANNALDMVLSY

[5] = inhibitor 1.0 mM, pH 7, 30° C., 20 minutes
[6] = inhibitor 0.1 mM, pH 7, 30° C., 20 minutes

[Ba+2].[Cl-].[Cl-] [BaCl2]
inhibition by metal ion ([1]; concentration of 1 mM): not inhibited | Residual activity (%) [1]: 100%

triton X-100
inhibition ([2]; 1%): little inhibited

α-sulfo-fatty acid ester
inhibition of activity by surfactant [3]: not inhibited | Residual activity (%) ([3]; surfactant 1.0%): 106%

Sodium α-olefin sulfonate
inhibition of activity by surfactant [3]: not inhibited | Residual activity (%) ([3]; surfactant 1.0%): 128%

[Cl-].[Li+] [LiCl2]
inhibition by metal ion ([1]; concentration of 1 mM): not inhibited | Residual activity (%) [1]: 114%

N- succinyl-Gly-Gly-Phe-p-nitroanilide (GGF; HELM PEPTIDE1{[O=C(O)CCC(=O)[*:2]].G.G.F.[O=[N+]([O-])c1ccc(N[*:1])cc1]}$$$$V2.0; SMILES O=C(O)CCC(=O)NCC(=O)NCC(=O)N[C@@H](Cc1ccccc1)C(=O)Nc1ccc([N+](=O)[O-])cc1) [synthetic substrate]
activity to further synthetic substrates [4]: showed activity

[Cl][Sn][Cl] [SnCl2]
inhibition by metal ion ([1]; concentration of 1 mM): not inhibited | Residual activity (%) [1]: 108%

[Cl][Cu][Cl] [CuCl2]
inhibition by metal ion ([1]; concentration of 1 mM): not inhibited | Residual activity (%) [1]: 109%

[Cl-].[Cl-].[Zn+2] [ZnCl2]
inhibition by metal ion ([1]; concentration of 1 mM): not inhibited | Residual activity (%) [1]: 121%

O=C(O)CI [Iodine acetate]
Residual activity (%) ([2]; pH 7): 104%

[Cl][Mn][Cl] [MnCl2]
inhibition by metal ion ([1]; concentration of 1 mM): not inhibited | Residual activity (%) [1]: 113%

[Cl-].[Cl-].[Mg+2] [MgCl2]
inhibition by metal ion ([1]; concentration of 1 mM): not inhibited | Residual activity (%) [1]: 105%

N-p-tosyl-Gly-Pro-Lys-p-nitroanilide ({p‑tosyl}-Gly-Pro-Lys-pNA) [To-GPK, synthetic substrate]
activity to further synthetic substrates [4]: showed activity

CCCCCCCCCCCCOS(=O)(=O)[O-].[Na+] [Sodium dodecyl sulfate]
inhibition of activity by surfactant [3]: not inhibited | Residual activity (%) ([3]; surfactant 10.0%): 104% | inhibition ([2]; 1 mM): little inhibited

Sodium polyoxyethylene alkyl sulfate
inhibition of activity by surfactant [3]: not inhibited | Residual activity (%) ([3]; surfactant 1.0%): 99%

[Cl][Pb][Cl] [PbCl2]
inhibition by metal ion ([1]; concentration of 1 mM): not inhibited | Residual activity (%) [1]: 115%

[Cl-].[Cl-].[Co+2] [CoCl2]
inhibition by metal ion [1]: not inhibited | Residual activity (%) [1]: 92%

[Cl][Hg][Cl] [HgCl2]
inhibition by metal ion ([1]; concentration of 1 mM): inhibited | Residual activity (%) [1]: 15%

O=C1CCC(=O)N1Br [N-bromosuccinic acid imide]
Residual activity (%) [2, 5]: 104%

CC(=O)N[C@@H](CC(C)C)C(=O)N[C@@H](CC(C)C)C(=O)N[C@H](C=O)CCCNC(=N)N [Leupeptin]
Residual activity (%) [2, 6]: 100%

Linear sodium alkylbenzene sulfonate
inhibition of activity by surfactant [3]: not inhibited | Residual activity (%) ([3]; surfactant 1.0%): 98%

N-methoxysuccinyl- Ala-Ile-Pro-Met-p-nitroanilide (AIPM; HELM PEPTIDE1{[COC(=O)CCC(=O)[*:2]].A.I.P.M.[O=[N+]([O-])c1ccc(N[*:1])cc1]}$$$$V2.0; SMILES CC[C@H](C)[C@H](NC(=O)[C@H](C)NC(=O)CCC(=O)OC)C(=O)N1CCC[C@H]1C(=O)N[C@@H](CCSC)C(=O)Nc1ccc([N+](=O)[O-])cc1) [synthetic substrate]
Relative activity (%) [4]: 90%

[Cl-].[K+] [KCl]
inhibition by metal ion ([1]; concentration of 1 mM): not inhibited | Residual activity (%) [1]: 111%

N-carboxybenzoxy-Phe-Val-Arg-p-nitroanilide (carboxybenzoxy-Phe-Val-Arg-pNA) [Z-FVR, synthetic substrate]
activity to further synthetic substrates [4]: showed activity

Sodium alkane sulfonate
inhibition of activity by surfactant [3]: not inhibited | Residual activity (%) ([3]; surfactant 10.0%): 107%

O=C(O)c1cc[c]([Hg][Cl])cc1 [p-chloromercuribenzoic acid]
inhibition ([2]; 1 mM): little inhibited

[Cl][Ni][Cl] [NiCl2]
inhibition by metal ion ([1]; concentration of 1 mM): not inhibited | Residual activity (%) [1]: 94%

N-succinyl-Ala-Ala-Ala-p-nitroanilide [AAA]
activity to further synthetic substrates [4]: showed activity

[Cl][Fe][Cl] [FeCl2]
Residual activity (%) [1]: 120%

N-succinyl-Ala-Ala-Val-Ala-p- nitroanilide (AAVA; HELM PEPTIDE1{[O=C(O)CCC(=O)[*:2]].A.A.V.A.[O=[N+]([O-])c1ccc(N[*:1])cc1]}$$$$V2.0; SMILES CC(C)[C@H](NC(=O)[C@H](C)NC(=O)[C@H](C)NC(=O)CCC(=O)O)C(=O)N[C@@H](C)C(=O)Nc1ccc([N+](=O)[O-])cc1) [synthetic substrate]
Relative activity (%) [4]: 4.6%

[Cl][Fe]([Cl])[Cl] [FeCl3]
Residual activity (%) [1]: 110%

Polyoxyethylene alkyl alcohol
inhibition of activity by surfactant [3]: not inhibited | Residual activity (%) ([3]; surfactant 1.0%): 107%

O=C(O)CN(CCN(CC(=O)O)CC(=O)O)CC(=O)O [EDTA, ethylenediamine tetraacetic acid]
inhibition ([2]; 100 mM): little inhibited; also recorded: not inhibited | Residual activity (%) ([2]; inhibitor 100 mM, pH 7, 30° C., 20 minutes): 100%

NC(N)=O [urea]
inhibition ([2]; 0.5 M): little inhibited

[Ca+2].[Cl-].[Cl-] [CaCl2]
inhibition by metal ion ([1]; concentration of 1 mM): not inhibited | Residual activity (%) [1]: 118%

O=S(=O)(F)Cc1ccccc1 [PMSF, phenylmethanesulfonyl fluoride]
inhibition ([2]; 1 mM): completely inhibited | Residual activity (%) [2, 5]: 0%

CC(C)C[C@H](NC(=O)[C@@H](O)[C@H](N)Cc1ccccc1)C(=O)O [Bestatin]
Residual activity (%) [2, 6]: 106%

N-succinyl-Ala-Ala-Pro-Phe-p-nitroanilide [AAPF]
Relative activity (%) [4]: 100%

N-succinyl-Ala-Ala-p-nitroanilide [AA]
activity to further synthetic substrates [4]: showed activity

[Cl][Cd][Cl] [CdCl2]
inhibition by metal ion ([1]; concentration of 1 mM): not inhibited | Residual activity (%) [1]: 100%

N-succinyl-Ala-Ala-Pro-Met-p-nitroanilide (AAPM; HELM PEPTIDE1{[O=C(O)CCC(=O)[*:2]].A.A.P.M.[O=[N+]([O-])c1ccc(N[*:1])cc1]}$$$$V2.0; SMILES CSCC[C@H](NC(=O)[C@@H]1CCCN1C(=O)[C@H](C)NC(=O)[C@H](C)NC(=O)CCC(=O)O)C(=O)Nc1ccc([N+](=O)[O-])cc1) [synthetic substrate]
Relative activity (%) [4]: 74%

CC(C)C[C@H](NC(=O)[C@@H](NC(=O)N[C@@H](Cc1ccccc1)C(=O)O)[C@@H]1CCN=C(N)N1)C(=O)N[C@H](C=O)Cc1ccccc1 [Chymostatin]
inhibition ([2]; 30 ppm): completely inhibited | Residual activity (%) ([2]; inhibitor 30 ppm, pH 7, 30° C., 20 minutes): 0%

N-glutaryl-Ala-Ala-Pro-Leu-p-nitroanilide (AAPL; HELM PEPTIDE1{[O=C(O)CCCC(=O)[*:2]].A.A.P.L.[O=[N+]([O-])c1ccc(N[*:1])cc1]}$$$$V2.0; SMILES CC(C)C[C@H](NC(=O)[C@@H]1CCCN1C(=O)[C@H](C)NC(=O)[C@H](C)NC(=O)CCCC(=O)O)C(=O)Nc1ccc([N+](=O)[O-])cc1) [synthetic substrate]
Relative activity (%) [4]: 91%

[Cl-].[Na+] [NaCl]
inhibition by metal ion [1]: not inhibited | Residual activity (%) [1]: 112%

butyroxycarboxy-Leu-Ser- Thr-Arg-p-nitroanilide (butyroxycarboxy-LSTR-pNA; reading uncertain) [synthetic substrate]
activity to further synthetic substrates [4]: showed activity
